Experimental data published in patent publication US20250388544A1, “HETEROAROMATIC INHIBITORS OF ASTACIN PROTEINASES” (VIVORYON THERAPEUTICS N.V., priority 2019, published 2025).

Columns and labels:
Type in all cases: biochemical
hMeprin α [1] = molecular target: T1, hMeprin α (Homo sapiens, UniProt Q16819); test: Enzymatic assay, quenched peptide substrate cleavage, method A; settings: geometric mean (geometric SD factor in parentheses), read-out: Meprin alpha IC50
T1 sequence (Q16819 66-746): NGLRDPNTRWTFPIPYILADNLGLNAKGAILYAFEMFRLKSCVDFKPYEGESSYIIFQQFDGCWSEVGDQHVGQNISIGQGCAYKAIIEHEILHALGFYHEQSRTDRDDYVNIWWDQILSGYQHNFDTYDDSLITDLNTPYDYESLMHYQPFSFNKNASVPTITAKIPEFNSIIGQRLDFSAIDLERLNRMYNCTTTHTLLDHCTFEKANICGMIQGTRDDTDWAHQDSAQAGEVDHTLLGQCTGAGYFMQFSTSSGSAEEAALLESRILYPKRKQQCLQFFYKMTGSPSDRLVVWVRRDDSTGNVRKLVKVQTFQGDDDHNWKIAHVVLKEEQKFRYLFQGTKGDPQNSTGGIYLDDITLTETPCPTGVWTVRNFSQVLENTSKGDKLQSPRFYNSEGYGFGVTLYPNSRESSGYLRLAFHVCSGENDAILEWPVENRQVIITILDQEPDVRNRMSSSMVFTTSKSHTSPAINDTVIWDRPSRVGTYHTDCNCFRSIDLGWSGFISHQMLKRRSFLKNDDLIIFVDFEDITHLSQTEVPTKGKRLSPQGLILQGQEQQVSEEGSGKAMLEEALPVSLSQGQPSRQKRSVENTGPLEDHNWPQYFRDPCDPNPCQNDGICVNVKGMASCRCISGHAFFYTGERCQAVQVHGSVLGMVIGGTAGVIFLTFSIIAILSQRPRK
Description: (§1) The determination of enzymatic activity was based on the cleavage of internally quenched peptide substrates. A typical assay of 250 μl total volume measured in black 96 well plates consisted of 100 μl buffer, 50 μl enzyme at a final concentration of 5e-8 M to 2e-10 M, 50 μl substrate (0.15 to 80 μM, in buffer, 0.5% DMSO) and 50 μl inhibitor solution (in buffer, 1% DMSO). In case of 125 μl assay volume (black 96 half area well plates) all volumes were cut in half. Enzymatic activity of ADAMs was measured in 384 well plates with 60 μl total assay volume consisting of 20 μl inhibitor, 20 μl buffer, 10 μl enzyme and 10 μl substrate.
(§2) Based on method B Ki^(app) values were determined using Morrison's equation. All measurements were performed using a fluorescence plate reader (FLUOSTAR OPTIMA, BMG Labtech) at 30° C. The kinetic parameters were determined at least in duplicates on separate days. The excitation/emission wavelength was 340/420 nm. The kinetic data was evaluated using GRAFIT software (version 7.0.3, Erithacus Software).

hMeprin β [2] = molecular target: T2, hMeprin β (Homo sapiens, UniProt Q16820); test: as above; settings: geometric mean (geometric SD factor in parentheses), read-out: Meprin beta IC50
T2 sequence (Q16820 62-701): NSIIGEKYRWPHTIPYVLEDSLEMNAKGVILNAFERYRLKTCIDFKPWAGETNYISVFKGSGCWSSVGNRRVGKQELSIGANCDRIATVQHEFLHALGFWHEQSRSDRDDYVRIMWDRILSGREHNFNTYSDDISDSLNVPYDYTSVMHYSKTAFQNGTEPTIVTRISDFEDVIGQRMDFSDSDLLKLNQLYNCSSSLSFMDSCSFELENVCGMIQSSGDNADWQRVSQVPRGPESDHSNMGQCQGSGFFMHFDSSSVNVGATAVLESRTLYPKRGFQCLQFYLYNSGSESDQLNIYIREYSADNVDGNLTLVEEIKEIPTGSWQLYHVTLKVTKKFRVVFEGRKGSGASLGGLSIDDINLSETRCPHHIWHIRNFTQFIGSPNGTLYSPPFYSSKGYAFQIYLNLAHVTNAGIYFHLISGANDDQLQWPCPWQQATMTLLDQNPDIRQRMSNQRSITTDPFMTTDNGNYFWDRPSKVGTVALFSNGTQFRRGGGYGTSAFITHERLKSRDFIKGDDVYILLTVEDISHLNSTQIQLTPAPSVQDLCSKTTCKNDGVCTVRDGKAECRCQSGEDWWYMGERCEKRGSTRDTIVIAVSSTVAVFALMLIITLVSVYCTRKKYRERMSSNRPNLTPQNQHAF
Description: as §1, §2

hMeprin α [3] = molecular target: T1, hMeprin α; test: Enzymatic assay, quenched peptide substrate cleavage, method B; settings: geometric mean (geometric SD factor in parentheses); for Ki: Morrison's equation, read-out: Meprin alpha Ki(app); for IC50: read-out: Meprin alpha IC50
Description: as §1, §2

hMeprin β [4] = molecular target: T2, hMeprin β; test: as above; settings: geometric mean (geometric SD factor in parentheses); for Ki: Morrison's equation, read-out: Meprin beta Ki(app); for IC50: read-out: Meprin beta IC50
Description: as §1, §2

hMMP 9 = molecular target: T3, hMMP 9 (Homo sapiens, UniProt P14780); test: Residual enzyme activity of other metalloproteases; settings: read-out: Residual enzyme activity MMP9
T3 construct: purchased R&D systems
Description: as §1
MMPs were activated prior to measurement by APMA (p-aminophenylmercuric acetate) treatment according to manufacturer's instructions (R&D systems).

hADAM 10 = molecular target: T4, hADAM 10 (Homo sapiens, UniProt O14672); test: Residual enzyme activity of other metalloproteases; settings: read-out: Residual enzyme activity ADAM10
T4 construct: purchased R&D systems
T4 sequence (O14672 214-748): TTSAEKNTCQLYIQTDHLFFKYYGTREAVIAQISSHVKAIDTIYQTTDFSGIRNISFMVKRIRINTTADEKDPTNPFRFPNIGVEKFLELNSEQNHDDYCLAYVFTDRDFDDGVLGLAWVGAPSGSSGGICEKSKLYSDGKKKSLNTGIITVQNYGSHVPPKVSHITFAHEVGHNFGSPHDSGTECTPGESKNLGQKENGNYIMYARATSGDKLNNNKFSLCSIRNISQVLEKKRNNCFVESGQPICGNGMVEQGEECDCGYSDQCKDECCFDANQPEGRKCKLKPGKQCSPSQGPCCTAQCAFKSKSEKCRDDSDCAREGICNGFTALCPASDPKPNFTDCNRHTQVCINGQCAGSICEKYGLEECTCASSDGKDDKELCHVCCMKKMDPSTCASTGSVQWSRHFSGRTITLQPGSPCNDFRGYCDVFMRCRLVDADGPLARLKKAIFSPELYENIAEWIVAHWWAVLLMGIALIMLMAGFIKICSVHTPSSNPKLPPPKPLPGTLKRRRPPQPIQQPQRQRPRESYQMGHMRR
Description: as §1

hADAM 17 = molecular target: T5, hADAM 17 (Homo sapiens, UniProt P78536); test: Residual enzyme activity of other metalloproteases; settings: read-out: Residual enzyme activity ADAM17
T5 construct: purchased R&D systems
Description: as §1

T3 sequence (P14780 107-707 limits assumed): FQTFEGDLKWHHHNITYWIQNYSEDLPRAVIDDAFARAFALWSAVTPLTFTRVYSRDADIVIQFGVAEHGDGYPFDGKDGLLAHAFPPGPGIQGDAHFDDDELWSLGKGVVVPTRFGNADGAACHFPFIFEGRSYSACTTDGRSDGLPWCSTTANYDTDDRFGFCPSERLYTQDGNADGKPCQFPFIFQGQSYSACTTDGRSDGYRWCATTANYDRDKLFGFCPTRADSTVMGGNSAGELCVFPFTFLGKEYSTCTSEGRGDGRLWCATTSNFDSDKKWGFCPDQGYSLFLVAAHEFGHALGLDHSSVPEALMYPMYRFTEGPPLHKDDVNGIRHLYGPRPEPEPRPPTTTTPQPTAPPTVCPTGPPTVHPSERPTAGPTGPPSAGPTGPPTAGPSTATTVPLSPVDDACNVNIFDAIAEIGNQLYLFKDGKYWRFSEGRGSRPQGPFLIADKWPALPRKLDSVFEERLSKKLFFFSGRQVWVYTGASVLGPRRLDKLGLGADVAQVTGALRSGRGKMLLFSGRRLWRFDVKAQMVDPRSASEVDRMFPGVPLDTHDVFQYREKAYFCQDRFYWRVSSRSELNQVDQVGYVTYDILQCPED
T5 sequence (P78536 215-824): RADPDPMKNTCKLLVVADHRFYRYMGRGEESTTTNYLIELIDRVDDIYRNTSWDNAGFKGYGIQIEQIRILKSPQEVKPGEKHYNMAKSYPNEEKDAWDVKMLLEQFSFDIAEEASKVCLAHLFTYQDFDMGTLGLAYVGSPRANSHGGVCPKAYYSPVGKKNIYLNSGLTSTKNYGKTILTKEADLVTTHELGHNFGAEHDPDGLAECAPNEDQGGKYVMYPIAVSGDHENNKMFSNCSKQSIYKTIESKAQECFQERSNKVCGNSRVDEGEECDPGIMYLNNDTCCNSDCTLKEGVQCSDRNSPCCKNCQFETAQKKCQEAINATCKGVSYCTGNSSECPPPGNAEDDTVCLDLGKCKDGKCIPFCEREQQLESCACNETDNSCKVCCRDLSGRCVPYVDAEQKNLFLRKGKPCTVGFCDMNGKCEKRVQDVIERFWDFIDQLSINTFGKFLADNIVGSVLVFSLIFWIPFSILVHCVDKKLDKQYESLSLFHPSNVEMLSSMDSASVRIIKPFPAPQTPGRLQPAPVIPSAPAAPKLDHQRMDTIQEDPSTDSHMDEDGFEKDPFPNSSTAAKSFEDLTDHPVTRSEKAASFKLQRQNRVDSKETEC

SMILES | Ki (hMeprin α [3]) [nM] | IC50 (hMeprin α [3]) [nM] | Ki (hMeprin β [4]) [nM] | IC50 (hMeprin β [4]) [nM] | further results
O=C(Cn1nc(-c2ccccc2)cc1-c1ccccc1)NO [Example 5, 2-(3,5-Diphenylpyrazol-1-yl)ethanehydroxamic acid] | – | – | – | – | IC50 (hMeprin α [1]): 292 nM; IC50 (hMeprin β [2]): 10.5 µM
O=C(CCn1nc(-c2ccccc2)cc1-c1ccccc1)NO [Example 6, 3-(3,5-Diphenylpyrazol-1-yl)propanehydroxamic acid] | – | – | – | – | IC50 (hMeprin α [1]): 457 nM; IC50 (hMeprin β [2]): 15.4 µM
O=C(CCn1c(-c2ccccc2)nnc1-c1ccccc1)NO [Example 8, 3-(3,5-Diphenyl-1,2,4-triazol-4-yl)propanehydroxamic acid] | – | – | – | – | IC50 (hMeprin α [1]): 353 nM; IC50 (hMeprin β [2]): 42.3 µM
O=C(CCn1c(-c2ccccc2)ccc1-c1ccccc1)NO [Example 10, 3-(2,5-Diphenylpyrrol-1-yl)propanehydroxamic acid] | – | – | – | – | IC50 (hMeprin α [1]): 727 nM; IC50 (hMeprin β [2]): 15 µM
O=C(Cc1c(-c2ccc3c(c2)OCO3)n[nH]c1-c1ccc2c(c1)OCO2)NO [Example 57, 2-[3,5-Bis(1,3-benzodioxol-5-yl)-1H-pyrazol-4-yl]ethanehydroxamic acid] | 0.64 | 0.72 | 113 | 119 | remaining activity at 10 µM (hMMP 9; 10 μM inhibitor): 63%; remaining activity at 200 µM (hMMP 9; 200 μM inhibitor): 10%; remaining activity at 10 µM (hADAM 10; 10 μM inhibitor): 62%; remaining activity at 200 µM (hADAM 10; 200 μM inhibitor): 0%; remaining activity at 10 µM (hADAM 17; 10 μM inhibitor): 57%; remaining activity at 200 µM (hADAM 17; 200 μM inhibitor): 4%
O=C(Cc1c(-c2ccc(C(=O)O)cc2)n[nH]c1-c1cccc(C(=O)O)c1)NO [Example 66, 3-[3-(4-Carboxyphenyl)-4-[2-(hydroxyamino)-2-oxo-ethyl]-1H-pyrazol-5-yl]benzoic acid] | 20 | 21 | 32 | 32 | –
O=C(NO)C1c2ccccc2-c2[nH]nc(-c3ccccc3)c21 (stereo not shown) [Example 67, 3-Phenyl-1,4-dihydroindeno[1,2-c]pyrazole-4-carbohydroxamic acid] | 39 | 40 | 1680 | 1790 | –
O=C(NO)C1Cc2ccccc2-c2[nH]nc(-c3ccccc3)c21 (stereo not shown) [Example 68, 3-Phenyl-4,5-dihydro-1H-benzo[g]indazole-4-carbohydroxamic acid] | 61 | 62 | 2530 | 2600 | –
O=C(Cc1c(-c2cc(O)no2)n[nH]c1-c1ccccc1)NO [Example 69, 2-[3-(3-Hydroxyisoxazol-5-yl)-5-phenyl-1H-pyrazol-4-yl]ethanehydroxamic acid] | 16 | 17 | 14 | 14 | –
O=C(Cc1c(-c2c[nH]nc2C(F)(F)F)n[nH]c1-c1ccccc1)NO [Example 70, 2-[5-Phenyl-3-[3-(trifluoromethyl)-1H-pyrazol-4-yl]-1H-pyrazol-4-yl]ethanehydroxamic acid] | 2 | 2 | 88 | 89 | –
O=C(Cc1c(-c2cccc(-c3nnn[nH]3)c2)n[nH]c1-c1ccccc1)NO [Example 71, 2-[5-Phenyl-3-[3-(1H-tetrazol-5-yl)phenyl]-1H-pyrazol-4-yl]ethanehydroxamic acid] | 0.71 | 0.71 | 7 | 7 | –
O=C(CCc1c(-c2ccccc2)nn(Cc2ccc(Cl)c(O)c2F)c1-c1ccccc1)NO [Example 72, 3-[1-[(4-chloro-2-fluoro-3-hydroxy-phenyl)methyl]-3,5-diphenyl-pyrazol-4-yl]propanehydroxamic acid] | 0.15 | 0.22 | 1180 | 1210 | –
O=C(Cc1c([C@@H]2CCCC[C@@H]2C(=O)O)n[nH]c1-c1ccccc1)NO [Example 73, (1S,2R)-2-[4-[2-(Hydroxyamino)-2-oxoethyl]-5-phenyl-1H-pyrazol-3-yl]cyclohexanecarboxylic acid] | 0.26 | 0.34 | 33 | 33 | –
O=C(Cc1c(C2CCCC(C(=O)O)C2)n[nH]c1-c1ccccc1)NO (stereo not shown) [Example 74, 3-[4-[2-(Hydroxyamino)-2-oxo-ethyl]-5-phenyl-1H-pyrazol-3-yl]cyclohexanecarboxylic acid] | 1 | 1 | 55 | 55 | –
O=C(Cc1c(-c2ccccc2)[nH]nc1[C@H]1CC[C@@H](C(=O)O)CC1)NO [Example 75, cis-4-[4-[2-(Hydroxyamino)-2-oxo-ethyl)-5-phenyl-1H-pyrazol-3-yl]cyclohexanecarboxylic acid] | 10 | 10 | 35 | 35 | –
O=C(Cc1c(-c2ccccc2)[nH]nc1[C@H]1CC[C@H](C(=O)O)CC1)NO [Example 76, trans-4-[4-[2-(Hydroxyamino)-2-oxo-ethyl]-5-phenyl-1H-pyrazol-3-yl]cyclohexanecarboxylic acid] | 12 | 12 | 98 | 98 | –
O=C(Cc1c(-c2cccc(C(=O)O)c2)[nH]nc1[C@H]1CC[C@@H](C(=O)O)CC1)NO [Example 77, cis-3-[3-(4-carboxycyclohexyl)-4-[2-(hydroxyamino)-2-oxo-ethyl]-1H-pyrazol-5-yl]benzoic acid] | 23 | 24 | 15 | 15 | –
O=C(Cc1c(-c2cccc(C(=O)O)c2)[nH]nc1[C@H]1CC[C@H](C(=O)O)CC1)NO [Example 78, trans-3-[3-(4-Carboxycyclohexyl)-4-[2-(hydroxyamino)-2-oxo-ethyl]-1H-pyrazol-5-yl]benzoic acid] | 20 | 20 | 21 | 21 | –
